Experiments:
Reovirus-1 = assay: Antiviral screening, Reovirus-1 in MDCK cells; type: cell-based; details: read-out: EC50 Reovirus-1
[1] = system: CEM, HeL, CRFK, HeLa, MDCK cells; details: above mentioned cell lines
Parainfluenza 3-virus = assay: Antiviral screening, Parainfluenza 3-virus in MDCK cells; type: cell-based; details: read-out: EC50 Parainfluenza 3-virus
Feline herpes virus = assay: Antiviral screening, Feline herpes virus in CRFK cells; type: cell-based; details: read-out: EC50 Feline herpes virus
[2] = system: FIV (feline immunodeficiency virus); details: cited from earlier work
Feline herpesvirus = assay: Antiviral activity against Feline herpesvirus; type: cell-based
VV = assay: Antiviral activity against VV; type: cell-based
HCMV = assay: Antiviral activity against HCMV; type: cell-based
HSV-1 = assay: Antiviral activity against HSV-1; type: cell-based
FIV = assay: Anti-FIV activity in CrFK cells; type: cell-based, feline immunodeficiency virus
HSV-2 = assay: Antiviral activity against HSV-2; type: cell-based

## C[C@@H](O)CNc1nc(N)c2ncn(C[C@@H](C)O)c2n1 [compound 3, (R)-1-{6-Amino-2-[(R)-2-(hydroxypropyl)amino]-9H-purin-9-yl}propan-2-ol]
Reovirus-1
  EC50: > 100 µg/mL
[1]
  MCC, minimum cytotoxicity concentration required to cause a microscopically detectable alteration of normal cell morphology: > 100 μg/mL
Parainfluenza 3-virus
  EC50: > 100 µg/mL
Feline herpes virus
  EC50: > 100 µg/mL

## C[C@@H](O)CNc1nc(N)nc2c1ncn2C[C@@H](C)O [compound 4, (R)-1-{2-Amino-6-[((R)-2-hydroxypropyl)amino]-9H-purin-9-yl}propan-2-ol]
Reovirus-1
  EC50: > 100 µg/mL
[1]
  MCC, minimum cytotoxicity concentration required to cause a microscopically detectable alteration of normal cell morphology: > 100 μg/mL
Parainfluenza 3-virus
  EC50: > 100 µg/mL
Feline herpes virus
  EC50: > 100 µg/mL

## C[C@H](Cn1cnc2c(NCP(=O)(O)O)nc(N)nc21)OCP(=O)(O)O [compound 10, (R)-9-[2-(Phosphonomethoxy)propyl]-N^6-phosphonomethyl-2,6-diaminopurine]
Reovirus-1
  EC50: > 100 µg/mL
[1]
  MCC, minimum cytotoxicity concentration required to cause a microscopically detectable alteration of normal cell morphology: > 100 μg/mL
Parainfluenza 3-virus
  EC50: > 100 µg/mL
Feline herpes virus
  EC50: > 100 µg/mL

## C[C@H](Cn1cnc2c(N)nc(N)nc21)OCP(=O)(O)O [compound 12, (R)-9-[2-(phosphonomethoxy)propyl]-2,6-diaminopurine]
[2]
  inhibition of FIV infections in cats: very potent inhibitor

## CCCCCCCCCCCCCCCCOCCCOP(=O)([O-])CO[C@H](C)Cn1cnc2c(N)nc(N)nc21.[Na+] [compound 14, Hexadecyloxypropyl ester of (R)-9-[2-(phosphonomethoxy)propyl]-2,6-diaminopurine, sodium salt]
Feline herpesvirus
  activity against Feline herpesvirus: No activity
VV
  activity against VV: No activity
HCMV
  activity against HCMV: No activity
HSV-1
  activity against HSV-1: No activity
FIV; in vitro, versus (R)-PMPDAP
  fold more potent in inhibiting FIV replication compared to the parent molecule: 200 fold
HSV-2
  activity against HSV-2: No activity

## CCOC(=O)[C@H](C)NP(=O)(CO[C@H](C)Cn1cnc2c(N)nc(N)nc21)N[C@@H](C)C(=O)OCC [compound 15]
FIV
  fold less active against FIV compared to the parent molecule: 10 fold
